Experimental data reported in ChEMBL document CHEMBL1909046, “DrugMatrix in vitro pharmacology data”.
Where a SMILES comes first, the peptide text is derived from it. Bridges are numbered along the chain shown (N, C = ends). [ ]: non-standard residue; d: D form. The star is where a group is joined. Ileψ(thiazoline)Cys = CC[C@H](C)[C@H](N)C1=N[C@H](C(=O)*)CS1; dOrn = NCCC[C@@H](N)C(=O)O

Assays:
[1] = target: T1, Alpha-1B adrenergic receptor (Rattus norvegicus, UniProt P15823); experiment: DRUGMATRIX: Alpha-1B adrenergic receptor radioligand binding (ligand: prazosin); format: cell membranes, Wistar, Liver, Membrane; details: Not Active = under 50% inhibition at 10 µM
T1 sequence (P15823 whole entry): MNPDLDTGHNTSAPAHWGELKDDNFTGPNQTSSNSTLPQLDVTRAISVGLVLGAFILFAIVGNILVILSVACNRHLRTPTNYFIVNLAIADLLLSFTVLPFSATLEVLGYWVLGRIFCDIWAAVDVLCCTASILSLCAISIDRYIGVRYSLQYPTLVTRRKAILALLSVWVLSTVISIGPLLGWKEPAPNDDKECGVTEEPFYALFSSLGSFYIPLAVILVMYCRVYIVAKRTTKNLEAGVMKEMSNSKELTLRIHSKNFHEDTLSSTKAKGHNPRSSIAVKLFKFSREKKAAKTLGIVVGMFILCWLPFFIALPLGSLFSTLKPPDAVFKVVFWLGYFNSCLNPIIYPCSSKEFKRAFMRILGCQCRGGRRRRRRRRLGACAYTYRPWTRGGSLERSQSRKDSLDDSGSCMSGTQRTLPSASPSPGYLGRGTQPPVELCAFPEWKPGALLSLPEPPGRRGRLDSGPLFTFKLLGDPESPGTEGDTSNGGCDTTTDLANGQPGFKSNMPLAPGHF

[2] = target: Beta-3 adrenergic receptor (Homo sapiens, UniProt P13945); experiment: DRUGMATRIX: Adrenergic beta3 radioligand binding (ligand: [125I] Cyanopindolol); format: cell membranes, HEK293, Membrane; details: hek293; Not Active = under 50% inhibition at 10 µM
Sequence of Beta-3 adrenergic receptor (P13945 whole entry): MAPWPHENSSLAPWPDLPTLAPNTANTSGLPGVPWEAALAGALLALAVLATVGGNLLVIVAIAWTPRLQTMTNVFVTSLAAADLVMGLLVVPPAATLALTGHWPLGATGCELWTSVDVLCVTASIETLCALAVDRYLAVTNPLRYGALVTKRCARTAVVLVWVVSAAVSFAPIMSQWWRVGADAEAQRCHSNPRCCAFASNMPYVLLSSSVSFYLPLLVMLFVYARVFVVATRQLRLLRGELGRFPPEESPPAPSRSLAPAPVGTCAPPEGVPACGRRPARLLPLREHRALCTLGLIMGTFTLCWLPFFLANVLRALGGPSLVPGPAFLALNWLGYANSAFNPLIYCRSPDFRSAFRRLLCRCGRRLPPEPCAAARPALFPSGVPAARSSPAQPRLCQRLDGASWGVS

Histamine H2 receptor = Histamine H2 receptor (Homo sapiens, UniProt P25021); format: cell membranes, CHO-K1, Membrane; details: cho-k1; further: in other assays of this panel Not Active means under 50% inhibition at 10 µM
Sequence of Histamine H2 receptor (P25021 whole entry): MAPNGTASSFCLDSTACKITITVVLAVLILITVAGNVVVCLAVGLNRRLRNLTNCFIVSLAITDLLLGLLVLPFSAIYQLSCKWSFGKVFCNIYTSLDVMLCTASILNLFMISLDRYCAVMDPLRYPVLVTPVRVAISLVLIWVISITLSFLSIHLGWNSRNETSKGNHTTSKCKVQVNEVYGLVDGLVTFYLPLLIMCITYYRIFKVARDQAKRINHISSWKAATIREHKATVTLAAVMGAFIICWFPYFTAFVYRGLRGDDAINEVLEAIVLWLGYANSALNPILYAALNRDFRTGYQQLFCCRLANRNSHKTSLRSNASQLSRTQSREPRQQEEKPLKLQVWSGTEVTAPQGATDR

[3] = target: 5-hydroxytryptamine receptor 6 (Homo sapiens, UniProt P50406); format: cell membranes, HeLa, Membrane; details: hela; further: in other assays of this panel Not Active means under 50% inhibition at 10 µM
Sequence of 5-hydroxytryptamine receptor 6 (P50406 whole entry): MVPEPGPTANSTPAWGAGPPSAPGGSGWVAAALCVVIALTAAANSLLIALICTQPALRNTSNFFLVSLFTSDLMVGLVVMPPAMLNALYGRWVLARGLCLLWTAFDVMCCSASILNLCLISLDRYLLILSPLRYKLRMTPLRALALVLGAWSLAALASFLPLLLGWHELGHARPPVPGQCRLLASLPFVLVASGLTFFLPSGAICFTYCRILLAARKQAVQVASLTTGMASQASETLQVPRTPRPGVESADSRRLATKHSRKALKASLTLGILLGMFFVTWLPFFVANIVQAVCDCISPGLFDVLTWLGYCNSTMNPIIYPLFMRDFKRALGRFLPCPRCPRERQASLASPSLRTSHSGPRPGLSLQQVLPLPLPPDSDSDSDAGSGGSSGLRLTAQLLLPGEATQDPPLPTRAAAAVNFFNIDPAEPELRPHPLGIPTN

Adenosine receptor A3 = target: T2, Adenosine receptor A3 (Homo sapiens, UniProt P0DMS8); format: cell membranes, CHO-K1, Membrane; details: cho-k1;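 further: radioligand binding assay with AB-MECA serving as the labeled ligand; in other assays of this panel Not Active means under 50% inhibition at 10 µM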
T2 sequence (P0DMS8 whole entry): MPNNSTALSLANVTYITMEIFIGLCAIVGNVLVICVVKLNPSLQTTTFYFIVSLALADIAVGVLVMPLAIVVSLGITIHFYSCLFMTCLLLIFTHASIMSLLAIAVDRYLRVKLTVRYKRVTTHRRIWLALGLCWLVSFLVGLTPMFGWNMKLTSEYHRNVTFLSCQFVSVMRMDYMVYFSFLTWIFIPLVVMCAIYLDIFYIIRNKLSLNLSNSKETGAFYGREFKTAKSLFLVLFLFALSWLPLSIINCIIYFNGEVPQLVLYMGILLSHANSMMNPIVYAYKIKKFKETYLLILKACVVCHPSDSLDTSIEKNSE

[4] = target: 5-hydroxytryptamine receptor 2B (Homo sapiens, UniProt P41595); format: cell membranes, CHO-K1, Membrane; details: cho-k1; further: in other assays of this panel Not Active means under 50% inhibition at 10 µM
Sequence of 5-hydroxytryptamine receptor 2B (P41595 whole entry): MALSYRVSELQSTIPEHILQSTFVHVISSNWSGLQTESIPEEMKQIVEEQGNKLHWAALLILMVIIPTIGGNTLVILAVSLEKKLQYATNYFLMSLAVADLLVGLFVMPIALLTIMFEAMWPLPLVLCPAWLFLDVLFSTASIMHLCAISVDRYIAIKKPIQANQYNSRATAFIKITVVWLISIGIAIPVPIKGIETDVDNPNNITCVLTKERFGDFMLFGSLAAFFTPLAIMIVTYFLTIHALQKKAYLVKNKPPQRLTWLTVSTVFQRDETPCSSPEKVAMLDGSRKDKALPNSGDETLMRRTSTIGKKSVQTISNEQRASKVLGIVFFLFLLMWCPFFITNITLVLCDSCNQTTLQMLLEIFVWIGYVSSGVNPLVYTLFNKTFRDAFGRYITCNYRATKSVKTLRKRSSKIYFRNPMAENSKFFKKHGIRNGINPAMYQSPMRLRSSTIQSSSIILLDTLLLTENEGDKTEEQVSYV

[5] = target: T3, Polyunsaturated fatty acid lipoxygenase ALOX15 (Oryctolagus cuniculus, UniProt P12530); experiment: biochemical; format: tissue-based, Reticulocytes; details: reticulocytes
T3 sequence (P12530 whole entry): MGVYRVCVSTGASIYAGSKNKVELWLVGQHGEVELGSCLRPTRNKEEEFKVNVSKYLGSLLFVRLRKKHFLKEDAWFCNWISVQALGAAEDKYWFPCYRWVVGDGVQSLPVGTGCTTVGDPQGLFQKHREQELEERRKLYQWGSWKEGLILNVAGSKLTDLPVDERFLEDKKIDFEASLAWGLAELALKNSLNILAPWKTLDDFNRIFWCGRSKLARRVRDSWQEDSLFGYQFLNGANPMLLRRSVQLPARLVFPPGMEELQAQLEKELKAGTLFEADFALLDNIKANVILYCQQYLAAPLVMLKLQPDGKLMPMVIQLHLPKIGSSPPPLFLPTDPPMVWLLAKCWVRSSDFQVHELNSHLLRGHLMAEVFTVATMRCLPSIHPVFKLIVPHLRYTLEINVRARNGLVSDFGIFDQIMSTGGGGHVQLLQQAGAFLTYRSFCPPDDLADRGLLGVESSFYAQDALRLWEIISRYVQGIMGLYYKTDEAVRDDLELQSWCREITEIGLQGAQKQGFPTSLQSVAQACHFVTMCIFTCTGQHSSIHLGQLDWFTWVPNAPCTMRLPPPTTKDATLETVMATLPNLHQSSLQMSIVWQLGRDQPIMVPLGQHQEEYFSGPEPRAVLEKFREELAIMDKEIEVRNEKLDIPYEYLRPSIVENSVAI

Cytochrome P450 2D6 = Cytochrome P450 2D6 (Homo sapiens, UniProt P10635); details: bti-tn-5b1-4; further: in other assays of this panel Not Active means under 50% inhibition at 10 µM
Sequence of Cytochrome P450 2D6 (P10635 whole entry): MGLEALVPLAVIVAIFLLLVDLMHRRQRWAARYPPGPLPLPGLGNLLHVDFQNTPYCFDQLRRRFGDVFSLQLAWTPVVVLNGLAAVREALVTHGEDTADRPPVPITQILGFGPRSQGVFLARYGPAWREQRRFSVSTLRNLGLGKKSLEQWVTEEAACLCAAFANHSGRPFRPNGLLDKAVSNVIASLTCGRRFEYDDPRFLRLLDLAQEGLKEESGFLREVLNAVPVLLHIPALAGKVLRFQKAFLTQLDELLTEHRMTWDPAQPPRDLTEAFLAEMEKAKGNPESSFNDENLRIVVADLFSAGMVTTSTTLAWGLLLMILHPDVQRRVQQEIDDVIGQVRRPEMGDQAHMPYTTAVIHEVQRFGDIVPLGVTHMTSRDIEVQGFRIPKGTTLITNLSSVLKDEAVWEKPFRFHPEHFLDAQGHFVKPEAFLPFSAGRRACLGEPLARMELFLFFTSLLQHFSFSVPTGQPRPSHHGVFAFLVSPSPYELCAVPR

D(1A) dopamine receptor = D(1A) dopamine receptor (Homo sapiens, UniProt P21728); experiment: DRUGMATRIX: Dopamine D1 radioligand binding (ligand: [3H] SCH-23390); format: cell membranes, CHO, Membrane; details: cho; Not Active = under 50% inhibition at 10 µM
Sequence of D(1A) dopamine receptor (P21728 whole entry): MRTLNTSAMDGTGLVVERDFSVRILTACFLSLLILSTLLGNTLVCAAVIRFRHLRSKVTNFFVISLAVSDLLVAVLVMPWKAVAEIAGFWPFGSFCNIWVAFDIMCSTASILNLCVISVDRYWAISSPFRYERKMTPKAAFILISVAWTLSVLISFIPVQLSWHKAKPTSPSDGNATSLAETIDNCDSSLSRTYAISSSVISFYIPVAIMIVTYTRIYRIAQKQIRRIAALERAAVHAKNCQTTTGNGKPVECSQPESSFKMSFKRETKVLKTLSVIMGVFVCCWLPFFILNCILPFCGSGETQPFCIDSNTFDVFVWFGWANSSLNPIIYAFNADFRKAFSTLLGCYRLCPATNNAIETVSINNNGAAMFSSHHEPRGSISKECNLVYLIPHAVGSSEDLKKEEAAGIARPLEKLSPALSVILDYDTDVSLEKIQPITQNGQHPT

[6] = DRUGMATRIX: GABAA, Chloride Channel, TBOB radioligand binding (ligand: [3H] TBOB); format: cell membranes, Rattus norvegicus, Wistar, Cerebral cortex, Membrane; details: Not Active = under 50% inhibition at 10 µM
[7] = target: T4, C-X-C chemokine receptor type 2 (Homo sapiens, UniProt P25025); format: cell membranes, Membrane; details: cho-k1; further: in other assays of this panel Not Active means under 50% inhibition at 10 µM
T4 sequence (P25025 whole entry): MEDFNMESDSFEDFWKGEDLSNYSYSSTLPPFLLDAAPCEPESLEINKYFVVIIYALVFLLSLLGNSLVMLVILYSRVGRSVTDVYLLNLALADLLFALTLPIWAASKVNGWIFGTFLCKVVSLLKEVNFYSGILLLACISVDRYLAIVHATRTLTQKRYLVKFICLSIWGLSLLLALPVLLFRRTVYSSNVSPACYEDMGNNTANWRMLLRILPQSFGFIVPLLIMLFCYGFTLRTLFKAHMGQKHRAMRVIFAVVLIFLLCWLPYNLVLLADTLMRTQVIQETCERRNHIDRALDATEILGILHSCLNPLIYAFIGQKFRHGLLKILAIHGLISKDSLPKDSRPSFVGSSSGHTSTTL

Cytochrome P450 2E1 = Cytochrome P450 2E1 (Homo sapiens, UniProt P05181); details: bti-tn-5b1-4; further: in other assays of this panel Not Active means under 50% inhibition at 10 µM
Sequence of Cytochrome P450 2E1 (P05181 whole entry): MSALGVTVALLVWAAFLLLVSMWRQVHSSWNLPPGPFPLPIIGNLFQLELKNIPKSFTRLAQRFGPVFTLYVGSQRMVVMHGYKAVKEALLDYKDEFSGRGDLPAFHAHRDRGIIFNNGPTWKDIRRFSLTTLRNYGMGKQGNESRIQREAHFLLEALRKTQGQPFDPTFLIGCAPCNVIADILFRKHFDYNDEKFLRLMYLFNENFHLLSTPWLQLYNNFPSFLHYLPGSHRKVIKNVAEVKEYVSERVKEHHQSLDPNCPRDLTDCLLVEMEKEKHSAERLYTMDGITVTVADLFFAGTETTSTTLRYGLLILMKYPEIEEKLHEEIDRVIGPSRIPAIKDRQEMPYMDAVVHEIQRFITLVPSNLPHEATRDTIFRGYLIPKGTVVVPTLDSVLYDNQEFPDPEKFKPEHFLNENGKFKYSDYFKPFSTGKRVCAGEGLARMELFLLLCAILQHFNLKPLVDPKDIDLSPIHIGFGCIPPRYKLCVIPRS

[8] = DRUGMATRIX: Calcium Channel Type L, Benzothiazepine radioligand binding (ligand: [3H] Diltiazem); format: cell membranes, Rattus norvegicus, Wistar, Brain, Membrane; details: Not Active = under 50% inhibition at 10 µM

CC[C@H](C)[C@H](N)C1=N[C@H](C(=O)N[C@@H](CC(C)C)C(=O)N[C@H](CCC(=O)O)C(=O)N[C@H](C(=O)N[C@H]2CCCCNC(=O)[C@H](CC(N)=O)NC(=O)[C@@H](CC(=O)O)NC(=O)[C@H](Cc3cnc[nH]3)NC(=O)[C@@H](Cc3ccccc3)NC(=O)[C@H]([C@@H](C)CC)NC(=O)[C@@H](CCCN)NC2=O)[C@@H](C)CC)CS1 [BACITRACIN] ({Ileψ(thiazoline)Cys}-L[dE]IK[dOrn]I[dF]H[dD]N; lactam 4-C)
Not Active: IC50 [1] | IC50 [2] | IC50 (Histamine H2 receptor) | IC50 [3] | IC50 (Adenosine receptor A3) | IC50 [4] | IC50 [5] | IC50 (Cytochrome P450 2D6) | Ki (Cytochrome P450 2D6) | IC50 (D(1A) dopamine receptor) | IC50 [6] | Ki [6] | IC50 [7] | IC50 (Cytochrome P450 2E1) | Ki (Cytochrome P450 2E1) | IC50 [8] | Ki [8]

CCCC[C@@H](CC)COC(=O)c1ccccc1C(=O)OC[C@@H](CC)CCCC [BIS(2-ETHYLHEXYL)PHTHALATE]
Not Active: IC50 [1] | IC50 [2] | IC50 (Histamine H2 receptor) | IC50 [3] | IC50 (Adenosine receptor A3) | IC50 [4] | IC50 [5] | IC50 (Cytochrome P450 2D6) | Ki (Cytochrome P450 2D6) | IC50 (D(1A) dopamine receptor) | IC50 [6] | Ki [6] | IC50 [7] | IC50 (Cytochrome P450 2E1) | Ki (Cytochrome P450 2E1) | IC50 [8] | Ki [8]

Nc1nc(=O)[nH]cc1F [FLUCYTOSINE]
Not Active: IC50 [1] | IC50 [2] | IC50 (Histamine H2 receptor) | IC50 [3] | IC50 (Adenosine receptor A3) | IC50 [4] | IC50 [5] | IC50 (Cytochrome P450 2D6) | Ki (Cytochrome P450 2D6) | IC50 (D(1A) dopamine receptor) | IC50 [6] | Ki [6] | IC50 [7] | IC50 (Cytochrome P450 2E1) | Ki (Cytochrome P450 2E1) | IC50 [8] | Ki [8]

N#C[C@H](O[C@@H]1O[C@H](CO[C@@H]2O[C@H](CO)[C@@H](O)[C@H](O)[C@H]2O)[C@@H](O)[C@H](O)[C@H]1O)c1ccccc1 [AMYGDALIN]
Not Active: IC50 [1] | IC50 [2] | IC50 (Histamine H2 receptor) | IC50 [3] | IC50 (Adenosine receptor A3) | IC50 [4] | IC50 [5] | IC50 (Cytochrome P450 2D6) | Ki (Cytochrome P450 2D6) | IC50 (D(1A) dopamine receptor) | IC50 [6] | Ki [6] | IC50 [7] | IC50 (Cytochrome P450 2E1) | Ki (Cytochrome P450 2E1) | IC50 [8] | Ki [8]

Nc1nc2c(ncn2COC(CO)CO)c(=O)[nH]1 [GANCICLOVIR]
Not Active: IC50 [1] | IC50 [2] | IC50 (Histamine H2 receptor) | IC50 [3] | IC50 (Adenosine receptor A3) | IC50 [4] | IC50 [5] | IC50 (Cytochrome P450 2D6) | Ki (Cytochrome P450 2D6) | IC50 (D(1A) dopamine receptor) | IC50 [6] | Ki [6] | IC50 [7] | IC50 (Cytochrome P450 2E1) | Ki (Cytochrome P450 2E1) | IC50 [8] | Ki [8]

CC1=Nc2ccc(Cl)cc2S(=O)(=O)N1 [DIAZOXIDE]
Not Active: IC50 [1] | IC50 [2] | IC50 (Histamine H2 receptor) | IC50 [3] | IC50 (Adenosine receptor A3) | IC50 [4] | IC50 [5] | IC50 (Cytochrome P450 2D6) | Ki (Cytochrome P450 2D6) | IC50 (D(1A) dopamine receptor) | IC50 [6] | Ki [6] | IC50 [7] | IC50 (Cytochrome P450 2E1) | Ki (Cytochrome P450 2E1) | IC50 [8] | Ki [8]
